Source: PMC9405102, “Targeted Modification and Structure-Activity Study of GL-29, an Analogue of the Antimicrobial Peptide Palustrin-2ISb” (Antibiotics, 2022)
Where two headings read alike, the source gives them in different places. Where no end group is shown, it is not given here.

How the values were obtained:
[1] = tested on: E. faecalis (NCTC 12697); assay type: cell-based, Enterococcus faecalis
Procedure: (§1) The MBIC and MBEC assays were performed to measure the inhibition and eradication of bacterial biofilm in the presence of different concentrations of peptides. Gram-positive bacteria were inoculated in Luria–Bertani (LB) broth at 37 °C overnight whereas Gram-negative bacteria were inoculated in tryptic soy broth (TSB), and then sub-cultured until reaching the logarithmic growth phase by measuring the OD values at a wavelength of 550nm. For the MBIC assay, 99 µL of diluted bacterial suspension (5 × 10^5 CFU/mL) was mixed with 1 µL of prepared peptide solutions in the wells of a round-bottomed 96-well plate, achieving the final concentrations from 512 to 1 µM, and then incubated at 37 °C for 24 h in a shaking incubator at 200 revolutions per minute (rpm). After this, the plate was washed twice by PBS and fixed with methanol for 30 min. For MBEC assay, 100 µL of diluted bacterial suspension (5 × 10^5 CFU/mL) was seeded into a round-bottomed 96-well plate and incubated at 37 °C for 24 h in a shaking incubator at 200 rpm to obtain mature biofilm. After this, plates were washed twice by PBS and incubated with different concentrations of peptide solution from 512 to 1 µM at 37 °C for 24 h. Afterwards, the plate was washed twice with PBS and fixed with methanol for 30 min. Then, both MBIC and MBEC plates were stained by 130 μL of 0.1% (g/v) crystal violet solutions for 30 min and washed with PBS until no apparent staining was observed. Evaporating crystal violet stains were dissolved by 33% (v/v) acetic acid, and the absorbance values were measured by a Synergy HT Microplate Reader (BioTek, Minneapolis, MN, USA) set to 595 nm. The minimum concentration that inhibited the formation of biofilm was defined when compared to the negative control group, as the MBIC. The minimum concentration that eradicated the biofilm was defined, when compared to the negative control group, as the MBEC. The biofilm assays were performed in triplicate.

[2] = tested on: S. aureus (ATCC CRM 6538); assay type: cell-based, Staphylococcus aureus
Procedure: (§2) The antimicrobial activity of the peptides was determined through the minimum inhibitory concentrations (MICs) and the minimum bactericidal concentration (MBCs) using the broth-dilution method in a 96-well plate, as described in the previous study. Six bacteria, including the Gram-positive bacteria, S. aureus (ATCC CRM 6538), MRSA (ATCC CRM 12493) and E. faecalis (NCTC 12697), the Gram-negative bacteria, E. coli (ATCC CRM 8739), K. pneumoniae (ATCC CRM 43816) and P. aeruginosa (ATCC CRM 9027), the yeast, C. albicans (ATCC CRM 10231) and clinical isolates, S. aureus (B042 V2E1 A), MRSA (B038 V1S1 A), E. coli (ATCC BAA-2340) and K. pneumoniae (ATCC BAA-1705) were used in these assays to evaluate the antimicrobial potency of the two peptides by determining their MICs and MBCs. All bacteria were cultured in MHB and the yeast, C. albicans was cultured in YPD broth overnight. Then, the microorganisms were sub-cultured and diluted to the final concentration of 2 × 10^5 CFU/mL to 5 × 10^5 CFU/mL. The Norfloxacin and amphotericin B were used as positive controls for the bacteria and yeast, respectively. The assay was repeated three times, with five replicates at each time.

[3] = tested on: S. aureus (B042 V2E1 A); assay type: cell-based, Staphylococcus aureus
Procedure: as §2

[4] = tested on: E. coli (ATCC CRM 8739); assay type: cell-based, Escherichia coli
Procedure: as §2

[5] = tested on: E. coli (ATCC BAA-2340); assay type: cell-based, Escherichia coli
Procedure: as §2

[6] = tested on: P. aeruginosa (ATCC CRM 9027); assay type: cell-based, Pseudomonas aeruginosa
Procedure: as §1

[7] = tested on: E. coli (ATCC CRM 8739); assay type: cell-based, Escherichia coli; remark: listed apart in the source
Procedure: as §1

[8] = tested on: MRSA (ATCC CRM 12493); assay type: cell-based, methicillin-resistant S. aureus
Procedure: as §2

[9] = tested on: MRSA (B038 V1S1 A); assay type: cell-based, methicillin-resistant S. aureus
Procedure: as §2

[10] = tested on: P. aeruginosa (ATCC CRM 9027); assay type: cell-based, Pseudomonas aeruginosa; remark: listed apart in the source
Procedure: as §2

[11] = tested on: K. pneumoniae (ATCC CRM 43816); assay type: cell-based, Klebsiella pneumoniae
Procedure: as §2

[12] = tested on: K. pneumoniae (ATCC BAA-1705); assay type: cell-based, Klebsiella pneumoniae
Procedure: as §2

[13] = tested on: K. pneumoniae (ATCC CRM 43816); assay type: cell-based, Klebsiella pneumoniae; remark: listed apart in the source
Procedure: as §1

[14] = tested on: C. albicans (ATCC CRM 10231); assay type: cell-based, Candida albicans
Procedure: as §2

[15] = tested on: E. faecalis (NCTC 12697); assay type: cell-based, Enterococcus faecalis; remark: listed apart in the source
Procedure: as §2

[16] = tested on: MRSA (ATCC CRM 12493); assay type: cell-based, methicillin-resistant S. aureus; remark: listed apart in the source
Procedure: as §1

[17] = tested on: S. aureus (ATCC CRM 6538); assay type: cell-based, Staphylococcus aureus; remark: listed apart in the source
Procedure: as §1

[18] = clinical isolated strain S. aureus (B042 V2E1 A)
[19] = KPC-producing resistant strain E. coli (ATCC BAA-2340)
[20] = clinical isolated strain MRSA (B038 V1S1 A)
[21] = KPC-producing resistant strain K. pneumoniae (ATCC BAA-1705)

LFVNVLDKIR-NH2 [LF-10, LFVNVLDKIR-NH2]
>512 µM: MBEC ([1]; NCTC 12697, 24 h) | MBIC ([1]; NCTC 12697, 24 h) | MBC ([2]; ATCC CRM 6538) | MIC ([2]; ATCC CRM 6538) | MBC ([3]; B042 V2E1 A) | MIC ([3]; B042 V2E1 A) | MBC ([4]; ATCC CRM 8739) | MIC ([4]; ATCC CRM 8739) | MBC ([5]; ATCC BAA-2340) | MIC ([5]; ATCC BAA-2340) | MBEC ([6]; ATCC CRM 9027, 24 h) | MBIC ([6]; ATCC CRM 9027, 24 h) | MBEC ([7]; ATCC CRM 8739, 24 h) | MBIC ([7]; ATCC CRM 8739, 24 h) | MBC ([8]; ATCC CRM 12493) | MIC ([8]; ATCC CRM 12493) | MBC ([9]; B038 V1S1 A) | MIC ([9]; B038 V1S1 A) | MBC ([10]; ATCC CRM 9027) | MIC ([10]; ATCC CRM 9027) | MBC ([11]; ATCC CRM 43816) | MIC ([11]; ATCC CRM 43816) | MBC ([12]; ATCC BAA-1705) | MIC ([12]; ATCC BAA-1705) | MBEC ([13]; ATCC CRM 43816, 24 h) | MBIC ([13]; ATCC CRM 43816, 24 h) | MBC ([14]; ATCC CRM 10231) | MIC ([14]; ATCC CRM 10231) | MBC ([15]; NCTC 12697) | MIC ([15]; NCTC 12697) | MBEC ([16]; ATCC CRM 12493, 24 h) | MBIC ([16]; ATCC CRM 12493, 24 h) | MBEC ([17]; ATCC CRM 6538, 24 h) | MBIC ([17]; ATCC CRM 6538, 24 h)

VNVLDKIR-NH2 [VN-8, VNVLDKIR-NH2]
>512 µM: MBEC ([1]; biofilm eradication, E. faecalis (NCTC 12697)) | MBIC ([1]; biofilm formation, E. faecalis (NCTC 12697)) | MBC ([2]; S. aureus (ATCC CRM 6538)) | MIC ([2]; S. aureus (ATCC CRM 6538)) | MBC [3, 18] | MIC [3, 18] | MBC ([4]; E. coli (ATCC CRM 8739)) | MIC ([4]; E. coli (ATCC CRM 8739)) | MBC [5, 19] | MIC [5, 19] | MBEC ([6]; biofilm eradication, P. aeruginosa (ATCC CRM 9027)) | MBIC ([6]; biofilm formation, P. aeruginosa (ATCC CRM 9027)) | MBEC ([7]; biofilm eradication, E. coli (ATCC CRM 8739)) | MBIC ([7]; biofilm formation, E. coli (ATCC CRM 8739)) | MBC ([8]; MRSA (ATCC CRM 12493)) | MIC ([8]; MRSA (ATCC CRM 12493)) | MBC [9, 20] | MIC [9, 20] | MBC ([10]; P. aeruginosa (ATCC CRM 9027)) | MIC ([10]; P. aeruginosa (ATCC CRM 9027)) | MBC ([11]; K. pneumoniae (ATCC CRM 43816)) | MIC ([11]; K. pneumoniae (ATCC CRM 43816)) | MBC [12, 21] | MIC [12, 21] | MBEC ([13]; biofilm eradication, K. pneumoniae (ATCC CRM 43816)) | MBIC ([13]; biofilm formation, K. pneumoniae (ATCC CRM 43816)) | MBC ([14]; C. albicans (ATCC CRM 10231)) | MIC ([14]; C. albicans (ATCC CRM 10231)) | MBC ([15]; E. faecalis (NCTC 12697)) | MIC ([15]; E. faecalis (NCTC 12697)) | MBEC ([16]; biofilm eradication, MRSA (ATCC CRM 12493)) | MBIC ([16]; biofilm formation, MRSA (ATCC CRM 12493)) | MBEC ([17]; biofilm eradication, S. aureus (ATCC CRM 6538)) | MBIC ([17]; biofilm formation, S. aureus (ATCC CRM 6538))
